Our source for the GI50 and TGI values is PubChem BioAssay (NCI).

Among the test systems are BT-549 breast; CAKI-1 renal; HOP-92 NSCLC; HS 578T breast; IGROV1 ovarian; MCF7 breast; MDA-MB-231 breast; MOLT-4 leukemia; SK-MEL-28 melanoma; SN12C renal.
Experiment in all cases: inhibition of tumour cell growth, NCI panel, 48 h

Values joined by “and” are separate entries in the source; they are usually repeats but may differ in a detail not shown here. Equal entries are not always repeated.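 Protocol summary: plate cells (96-well), add compound at 5 concentrations, incubate 48 h, interpolate endpoints linearly. At the GI50, growth is halved. TGI: concentration producing complete growth inhibition.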

For the compound `COc1cc(-c2nc3sc(C)cn3c2/C=C2\C(=O)Nc3ccccc32)c(Br)c(OC)c1OC`, the GI50 in the test on BT-549 breast is 23.3 µM; in the test with CAKI-1 renal it was 22.6 µM; in the test with HOP-92 NSCLC, 26.7 µM; with HS 578T breast it was 31.5 µM; in the test with IGROV1 ovarian, 23.4 µM; in the test with MCF7 breast, 5.81 µM. The GI50 was 31.6 µM in the test on MDA-MB-231 breast, 36.4 µM in the test on MOLT-4 leukemia, 39.1 µM in the test on SK-MEL-28 melanoma and 45.4 µM with SN12C renal. In addition, the TGI in the test with BT-549 breast is 60.1 µM; with CAKI-1 renal it was 57 µM; in the test with HOP-92 NSCLC, 77 µM; in the test on HS 578T breast, 74.6 µM; in the test with IGROV1 ovarian, above 100 µM; with MCF7 breast, 43.3 µM. Moreover, the TGI in the test on MDA-MB-231 breast was 97 µM; in the test on MOLT-4 leukemia it was above 100 µM; in the test with SK-MEL-28 melanoma, above 100 µM; in the test on SN12C renal, above 100 µM.

Turning to `CC(C)(C)c1cc(NC(=O)Nc2ccc(-c3cn4c(n3)sc3cc(OCCN5CCOCC5)ccc34)cc2)no1`, the GI50 in the test with BT-549 breast was 3.52 µM and 0.819 µM and 7.47 µM; with CAKI-1 renal, 10.9 µM and 2.6 µM and 6.93 µM; in the test with HOP-92 NSCLC, 3.25 µM and 0.398 µM and 1.59 µM; with HS 578T breast, 1.35 µM and 0.328 µM and 1.75 µM; in the test with IGROV1 ovarian, 9.38 µM and 2.33 µM and > 10 µM; in the test on MCF7 breast, 2.04 µM and 0.357 µM and 1.41 µM. Also, the GI50 with MDA-MB-231 breast is 6.34 µM and 2.36 µM and 7.92 µM; in the test on SK-MEL-28 melanoma, 4.23 µM and 2.04 µM and > 10 µM. The TGI in the test with BT-549 breast is 20.3 µM and 5.16 µM and > 10 µM; in the test with CAKI-1 renal, 31.9 µM and 15.3 µM and > 10 µM; with HOP-92 NSCLC, 14.8 µM and 5.01 µM and > 10 µM; in the test with HS 578T breast, 25.3 µM and 2.92 µM and > 10 µM; in the test on IGROV1 ovarian it was 25.7 µM and 15.7 µM and > 10 µM; in the test with MCF7 breast, 23.3 µM and 13.3 µM and > 10 µM. Also, the TGI with MDA-MB-231 breast was 21 µM and 16.3 µM and > 10 µM; in the test on MOLT-4 leukemia, > 100 µM and 23.6 µM and > 10 µM; in the test on SK-MEL-28 melanoma, 17.5 µM and 12 µM and > 10 µM; in the test on SN12C renal it was 24.9 µM and 13.2 µM and > 10 µM.

Turning to `Cc1ccc2cccc(OC(=O)Nc3cccc(C(F)(F)F)c3)c2n1`, the GI50 in the test with BT-549 breast was 10.7 µM; in the test on CAKI-1 renal, 3.25 µM; in the test on HOP-92 NSCLC, 2.21 µM; in the test with HS 578T breast, 3.53 µM; in the test with IGROV1 ovarian it was 4.29 µM; in the test with MCF7 breast, 2.26 µM. Further, the GI50 in the test with MDA-MB-231 breast is 2.37 µM; with MOLT-4 leukemia, 3.61 µM; with SK-MEL-28 melanoma, 4.34 µM; with SN12C renal, 2.66 µM. Moreover, the TGI with BT-549 breast is 26.8 µM; in the test on CAKI-1 renal it was 11.8 µM; in the test on HOP-92 NSCLC it was 6.66 µM; in the test with HS 578T breast it was 18.9 µM; in the test on IGROV1 ovarian it was 17.4 µM; in the test with MCF7 breast it was 8.05 µM. The TGI in the test on MDA-MB-231 breast turned out to be 7.26 µM; with MOLT-4 leukemia, 24.2 µM; with SK-MEL-28 melanoma it was 16.3 µM; in the test on SN12C renal it was 8.18 µM.

`CC1(C)N=C(N)N=C(N)N1c1ccc(Cl)cc1`: the GI50 in the test with BT-549 breast was 14.6 µM; with CAKI-1 renal, above 100 µM; in the test with HOP-92 NSCLC, above 100 µM; in the test with HS 578T breast it was above 100 µM; with IGROV1 ovarian, 2.27 µM; in the test on MCF7 breast, 4.88 µM. Moreover, the GI50 is above 100 µM in the test on MDA-MB-231 breast, 62.3 µM in the test on MOLT-4 leukemia, 53.5 µM in the test on SK-MEL-28 melanoma and 7.25 µM in the test on SN12C renal. In addition, the TGI with BT-549 breast, in the test on CAKI-1 renal, in the test on HOP-92 NSCLC, in the test on HS 578T breast, in the test on IGROV1 ovarian and in the test on MCF7 breast was above 100 µM in each case. Besides, the TGI in the test on MDA-MB-231 breast, with MOLT-4 leukemia, in the test with SK-MEL-28 melanoma and with SN12C renal was above 100 µM each time.

`NC(=S)N/N=C1\c2ccccc2-c2c(F)c(F)c(F)c(F)c21`: the GI50 in the test on BT-549 breast was 4.92 µM; in the test with CAKI-1 renal it was 2.34 µM; in the test with HOP-92 NSCLC, 6.33 µM; in the test on HS 578T breast, 6.25 µM; in the test with IGROV1 ovarian, 5.81 µM; with MCF7 breast, 2.39 µM. Further, the GI50 in the test on MDA-MB-231 breast was 4.21 µM; in the test on MOLT-4 leukemia, 1.8 µM; with SK-MEL-28 melanoma, 2.99 µM; in the test with SN12C renal, 7.31 µM. Moreover, the TGI was 10.7 µM with BT-549 breast; 7.16 µM with CAKI-1 renal; 19.9 µM in the test on HOP-92 NSCLC; 39.5 µM in the test with HS 578T breast; 13.8 µM with IGROV1 ovarian; 14.3 µM in the test on MCF7 breast. The TGI was 10.7 µM in the test with MDA-MB-231 breast, 5.31 µM with MOLT-4 leukemia, 8.87 µM in the test on SK-MEL-28 melanoma and 20 µM in the test with SN12C renal.

Take `Cn1c(=O)nc2n(-c3ccc(Cl)cc3)c3cc(Cl)ccc3nc-2c1=O`: the TGI in the test with BT-549 breast came out at 7.17 µM; with CAKI-1 renal, 20.7 µM; with HOP-92 NSCLC, 18.5 µM; in the test on HS 578T breast, 5.59 µM; with IGROV1 ovarian it was 3.74 µM; with MCF7 breast it was 2.8 µM. Also, the TGI was 6.91 µM in the test on MDA-MB-231 breast, 16.5 µM in the test with MOLT-4 leukemia, 7.19 µM in the test with SK-MEL-28 melanoma and 13.9 µM in the test with SN12C renal.

As for `O=C(COc1cccc(/C=C2\CSc3ccc(Cl)cc3C2=O)c1)c1ccc(Cl)cc1`, the GI50 in the test on BT-549 breast is 15 µM; in the test with CAKI-1 renal, 12.2 µM; with HOP-92 NSCLC, 0.666 µM; with HS 578T breast it was 2.46 µM; in the test with IGROV1 ovarian, 3.29 µM; in the test on MCF7 breast it was 2.12 µM. Moreover, the GI50 was 2.93 µM in the test with MDA-MB-231 breast, 1.84 µM in the test with MOLT-4 leukemia, 15.6 µM in the test with SK-MEL-28 melanoma and 8.89 µM in the test on SN12C renal. Moreover, the TGI in the test on BT-549 breast came out at 28.8 µM; with CAKI-1 renal it was 34.1 µM; in the test on HOP-92 NSCLC, 9.8 µM; in the test on HS 578T breast, 6.91 µM; with IGROV1 ovarian, 20.2 µM; in the test on MCF7 breast it was 10.4 µM. Moreover, the TGI was 16.5 µM in the test on MDA-MB-231 breast, 4.46 µM in the test with MOLT-4 leukemia, 30.4 µM with SK-MEL-28 melanoma and 22.4 µM with SN12C renal.

Regarding `Oc1c(Cl)cc(Cl)cc1/C=N/Nc1nnc(N/N=C/c2cc(Cl)cc(Cl)c2O)c2ccccc12`, the GI50 in the test with BT-549 breast was 0.549 µM; in the test with CAKI-1 renal, 0.643 µM; in the test with HOP-92 NSCLC, 0.284 µM; in the test with HS 578T breast, 1.03 µM; in the test with IGROV1 ovarian, 0.419 µM; in the test on MCF7 breast, 0.482 µM. Besides, the GI50 in the test with MDA-MB-231 breast was 0.479 µM; in the test with MOLT-4 leukemia, 0.363 µM; with SK-MEL-28 melanoma, 0.622 µM; with SN12C renal, 0.543 µM. For the same compound, the TGI in the test on BT-549 breast, in the test with HS 578T breast, with IGROV1 ovarian, with MCF7 breast, in the test with MDA-MB-231 breast and in the test with MOLT-4 leukemia was above 100 µM each time. Besides, the TGI in the test on SK-MEL-28 melanoma and in the test with SN12C renal was above 100 µM in each case.
